# Test results published in US6423704B1, “Substituted 4-(1H-benzimidazol-2-yl)[1,4]diazepanes useful for the treatment of allergic diseases” (Aventis Pharmaceuticals Inc., priority 1995, dated 2002).
# Counter-ions that a name gives are not always drawn.
row,melting point,Compound
1,90 to 100 °C,"CCOCCn1c(N2CCCN(CCC3(c4ccc(OC)c(OC)c4)CCN(C(=O)c4cc(OC)c(OC)c(OC)c4)C3)CC2)nc2ccccc21 (centres unmarked) (as salt: salt) [Example 1, 1-(3,4,5-Trimethoxybenzoyl)-3-(2-(4-(1-(2-ethoxyethyl)-1H-benzimidazol-2-yl)[1,4]diazepan-1-yl)ethyl)-3-(3,4-dimethoxyphenyl)pyrrolidine]"
2,40 to 42 °C,"CCOCCn1c(N2CCCN(CCC3(c4ccccn4)CCN(C(=O)c4cc(OC)c(OC)c(OC)c4)C3)CC2)nc2ccccc21 (centres unmarked) [Example 32, 1-(3,4,5-Trimethoxybenzoyl)-3-(2-(4-(1-(2-ethoxyethyl)-1H-benzimidazol-2-yl)[1,4]diazepan-1-yl)ethyl)-3-(pyrid-2-yl)pyrrolidine]"
